Key:
AhR = AhR (Homo sapiens (Human), UniProt P35869); assay: AhR antagonism in U937 cells (Promega P450-Glo assay); format: cell-based; settings: inhibition of agonist (KYNA) response, CYP1A1 activity readout (Luciferin-CEE), 24 hrs, arithmetic mean of pIC50
Experimental: Examples were tested in selected biological assays two or more times. Data are reported as the arithmetic mean of the pIC50 (−log10IC50) values, where IC50 is defined as the concentration of compound producing a 50% inhibition of the agonist (KYNA) response.
In Vitro Assay 1: AhR Antagonism in U937 Cells (Promega P450-Glo™ Assay)
AhR antagonism was assessed in U937 cells (myeloid lineage cell line derived from a human histiocytic lymphoma).). Ligand binds the AhR in the cytoplasm, and the AhR-ligand complex translocates to the nucleus and forms a heterodimer with AhR nuclear translocator (Arnt). This complex binds the xenobiotic response element (XRE) in the 5′ upstream region of the CYP1A1 promoter, enhancing CYP1A1 expression. CYP1A1 activity is subsequently determined by assessing the conversion of Luciferin-CEE to luciferin, which in turn reacts with luciferase to produce light. The amount of light produced is directly proportional to cytochrome P450 activity. U937 cells in Ultraculture serum free media (Lonza) were plated at 100,000 cells per well in a round bottom 96 well tissue culture plate. Seven concentrations of test compound (final [DMSO] 1%) were added and incubated for 10 minutes before the addition of […] KYNA. The plates were then placed in an incubator at 37° C., >85% humidity, 5% CO2 for 24 hrs. After aspiration of the supernatant the CYP1A1 substrate Luciferin-CEE ([Final] 83 μM) was added and incubated for 3 hrs before the reaction was stopped by adding luciferin detection reagent and luminescence was read after 20 minutes.

CYP1A1 = CYP1A1 (Homo sapiens (Human), UniProt P04798); assay: CYP1A1 inhibition assay (Promega P450-Glo, Cypex bactosomes); format: biochemical; settings: direct CYP1A1 inhibition, Luciferin-CEE 30 μM, NADPH, 37° C., arithmetic mean of pIC50
Experimental: In Vitro Assay 22: […] Inhibition Assay
The direct CYP1A1 inhibitory activity of test compounds was also assessed using the Promega P450-Glo™ assay system. Seven concentrations of test compound were added to a ½ area white 96 well plate. Cypex […]. bactosomes ([final] 0.5 pmol) and CYPA substrate Luciferin-CEE ([final] 30 μM) were prepared in 0.1M potassium phosphate buffer and incubated with test compounds at 37° C. for 5 minutes. 0.2m NADPH was then added to the plates and incubated at 37° C., for 10 minutes. The reaction was stopped by adding luciferin detection reagent and luminescence was read after 20 minutes.

Chain of CYP1A1 (P04798 whole entry): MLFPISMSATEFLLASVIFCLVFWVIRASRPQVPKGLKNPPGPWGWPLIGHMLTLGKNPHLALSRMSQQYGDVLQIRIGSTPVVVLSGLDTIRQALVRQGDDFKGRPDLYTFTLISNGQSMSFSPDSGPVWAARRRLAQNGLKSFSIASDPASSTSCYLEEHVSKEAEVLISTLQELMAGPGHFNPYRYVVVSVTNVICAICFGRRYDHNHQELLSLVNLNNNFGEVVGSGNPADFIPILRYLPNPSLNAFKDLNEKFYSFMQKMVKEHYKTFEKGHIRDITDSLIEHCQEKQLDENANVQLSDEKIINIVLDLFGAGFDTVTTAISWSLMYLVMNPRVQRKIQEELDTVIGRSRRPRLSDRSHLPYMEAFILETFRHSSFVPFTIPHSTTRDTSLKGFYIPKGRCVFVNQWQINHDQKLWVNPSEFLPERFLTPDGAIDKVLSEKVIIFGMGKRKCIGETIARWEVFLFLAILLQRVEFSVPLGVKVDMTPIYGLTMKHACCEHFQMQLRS
Chain of AhR (P35869 11-848): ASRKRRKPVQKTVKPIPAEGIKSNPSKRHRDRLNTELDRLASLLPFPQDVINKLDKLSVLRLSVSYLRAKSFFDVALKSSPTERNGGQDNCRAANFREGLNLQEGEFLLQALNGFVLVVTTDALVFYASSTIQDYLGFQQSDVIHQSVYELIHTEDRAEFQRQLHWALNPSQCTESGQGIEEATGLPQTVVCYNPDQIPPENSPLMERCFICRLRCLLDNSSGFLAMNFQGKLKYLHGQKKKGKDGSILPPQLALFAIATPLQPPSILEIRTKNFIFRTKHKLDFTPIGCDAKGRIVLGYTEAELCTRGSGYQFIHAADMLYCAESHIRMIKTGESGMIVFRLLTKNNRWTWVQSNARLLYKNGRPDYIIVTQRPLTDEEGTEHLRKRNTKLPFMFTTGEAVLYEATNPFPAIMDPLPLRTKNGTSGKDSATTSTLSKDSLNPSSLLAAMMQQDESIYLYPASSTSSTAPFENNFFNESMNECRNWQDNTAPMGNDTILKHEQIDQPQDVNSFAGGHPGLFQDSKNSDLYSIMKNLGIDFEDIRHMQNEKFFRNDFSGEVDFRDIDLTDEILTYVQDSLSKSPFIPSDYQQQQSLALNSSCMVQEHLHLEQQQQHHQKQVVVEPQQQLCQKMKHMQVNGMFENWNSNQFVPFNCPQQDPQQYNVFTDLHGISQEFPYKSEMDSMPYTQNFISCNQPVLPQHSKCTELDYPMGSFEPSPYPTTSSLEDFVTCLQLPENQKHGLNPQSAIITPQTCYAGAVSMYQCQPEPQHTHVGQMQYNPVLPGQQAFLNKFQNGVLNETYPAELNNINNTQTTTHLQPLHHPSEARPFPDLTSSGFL

SMILES | IC50 (AhR) [nM] | cyp1A1 pIC50 (CYP1A1)
Cc1cncc(-c2nc3c(c(NCCc4c[nH]c5ccccc45)n2)CNCC3)c1 [Example 26, N-(2-(1H-indol-3-yl)ethyl)-2-(5-methylpyridin-3-yl)-5,6,7,8-tetrahydro pyrido[4,3-d]pyrimidin-4-amine] | 6.17 | 7.2
Clc1cncc(-c2nc3c(c(NCCc4c[nH]c5ccccc45)n2)CNCC3)c1 [Example 27, N-(2-(1H-indol-3-yl)ethyl)-2-(5-chloropyridin-3-yl)-5,6,7,8-tetrahydropyrido[4,3-d]pyrimidin-4-amine] | 4.47 | 7.2
Fc1cncc(-c2nc3c(c(NCCc4nc5ccccc5[nH]4)n2)CNCC3)c1 [Example 28, N-(2-(1H-benzo[d]imidazol-2-yl)ethyl)-2-(5-fluoropyridin-3-yl)-5,6,7,8-tetrahydropyrido[4,3-d]pyrimidin-4-amine] | > 10000 | 5.5
Fc1cncc(-c2nc3c(c(NCCc4c[nH]c5cc(F)ccc45)n2)CCNC3)c1 [Example 29, N-(2-(6-fluoro-1H-indol-3-yl)ethyl)-2-(5-fluoropyridin-3-yl)-5,6,7,8-tetrahydropyrido[3,4-d]pyrimidin-4-amine] | 7.94 | 6.7

The remaining lines, values ahead:

IC50 (AhR) [nM] | cyp1A1 pIC50 (CYP1A1) | SMILES
26.3 | 6.5 | Fc1cncc(-c2nc3c(c(NCCc4c[nH]c5ccc(F)cc45)n2)CCNC3)c1 [Example 30, N-(2-(5-fluoro-1H-indol-3-yl)ethyl)-2-(5-fluoropyridin-3-yl)-5,6,7,8-tetrahydropyrido [3,4-d]pyrimidin-4-amine]
5.13 | 7.2 | Fc1cncc(-c2nc3c(c(NCCc4c[nH]c5cc(F)ccc45)n2)CNCC3)c1 [Example 31, N-(2-(6-fluoro-1H-indol-3-yl)ethyl)-2-(5-fluoropyridin-3-yl)-5,6,7,8-tetrahydropyrido[4,3-d]pyrimidin-4-amine]
6.03 | 7.1 | Fc1cncc(-c2nc3c(c(NCCc4c[nH]c5ccc(F)cc45)n2)CNCC3)c1 [Example 32, N-(2-(5-fluoro-1H-indol-3-yl)ethyl)-2-(5-fluoropyridin-3-yl)-5,6,7,8-tetrahydropyrido[4,3-d]pyrimidin-4-amine]
